# Source: article PMC12136037, “Type II kinase inhibitors that target Parkinson’s disease–associated LRRK2” (Science Advances, 2025)
# Tests used:
# Assay in all cases: DSF 100 kinase selectivity screen;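 further: compound tested at 20 µM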
# Format in all cases: binding
# [1] = target: T1, ~100 representative kinases (Homo sapiens, UniProt Q99683); settings: protein MAP3K5; average of three replicates
# T1 construct: Recombinant protein kinase domains with a concentration of 2 μM
# T1 sequence (Q99683 1-1374): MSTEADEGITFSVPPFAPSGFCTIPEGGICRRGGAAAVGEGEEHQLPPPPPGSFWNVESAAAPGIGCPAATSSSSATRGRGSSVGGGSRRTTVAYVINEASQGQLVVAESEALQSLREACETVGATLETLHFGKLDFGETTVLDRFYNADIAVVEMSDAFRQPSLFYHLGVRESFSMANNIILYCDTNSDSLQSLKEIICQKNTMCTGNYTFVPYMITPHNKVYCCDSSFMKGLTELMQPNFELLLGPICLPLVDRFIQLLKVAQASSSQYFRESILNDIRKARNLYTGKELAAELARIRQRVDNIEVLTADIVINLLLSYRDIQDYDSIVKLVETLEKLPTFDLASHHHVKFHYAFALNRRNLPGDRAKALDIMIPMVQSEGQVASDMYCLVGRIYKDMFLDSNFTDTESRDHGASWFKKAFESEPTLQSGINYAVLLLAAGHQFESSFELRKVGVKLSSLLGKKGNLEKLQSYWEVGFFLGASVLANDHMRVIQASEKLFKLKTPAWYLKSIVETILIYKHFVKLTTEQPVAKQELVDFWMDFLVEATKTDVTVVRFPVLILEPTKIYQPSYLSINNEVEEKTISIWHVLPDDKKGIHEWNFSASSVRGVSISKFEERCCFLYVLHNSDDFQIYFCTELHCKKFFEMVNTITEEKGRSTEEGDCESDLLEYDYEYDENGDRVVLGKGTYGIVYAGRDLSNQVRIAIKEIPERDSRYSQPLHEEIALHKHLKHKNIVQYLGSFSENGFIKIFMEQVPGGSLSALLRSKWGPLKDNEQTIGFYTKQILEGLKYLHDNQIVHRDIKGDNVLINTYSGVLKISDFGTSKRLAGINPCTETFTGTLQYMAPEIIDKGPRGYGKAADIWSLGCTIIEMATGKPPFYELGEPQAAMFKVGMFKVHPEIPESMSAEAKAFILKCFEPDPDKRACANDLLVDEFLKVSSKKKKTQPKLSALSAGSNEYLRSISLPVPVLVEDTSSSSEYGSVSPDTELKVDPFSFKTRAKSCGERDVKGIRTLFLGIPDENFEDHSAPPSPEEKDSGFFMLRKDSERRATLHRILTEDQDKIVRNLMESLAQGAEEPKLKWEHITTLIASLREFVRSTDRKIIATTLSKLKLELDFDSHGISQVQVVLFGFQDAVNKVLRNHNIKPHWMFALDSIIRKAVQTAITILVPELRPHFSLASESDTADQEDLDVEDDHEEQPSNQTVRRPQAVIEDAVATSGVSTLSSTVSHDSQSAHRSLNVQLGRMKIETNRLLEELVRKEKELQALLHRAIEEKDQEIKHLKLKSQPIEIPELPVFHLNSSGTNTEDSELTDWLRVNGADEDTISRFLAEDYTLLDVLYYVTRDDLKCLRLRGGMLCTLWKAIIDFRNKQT
# Method in brief: (§1)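 Each kinase domain, at 2 μM, is mixed with 20 μM test compound and SYPRO Orange in Hepes (20 mM, pH 7.5) with 500 mM NaCl. Temperature is then raised at 3°C/min and fluorescence-monitored unfolding yields the melting temperature change, ΔTm in degrees Celsius.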
# [2] = target: T2, ~100 representative kinases (Homo sapiens, UniProt O96013); settings: protein PAK4; average of three replicates
# T2 construct: Recombinant protein kinase domains with a concentration of 2 μM
# T2 sequence (O96013 whole entry, the tested form may be a part): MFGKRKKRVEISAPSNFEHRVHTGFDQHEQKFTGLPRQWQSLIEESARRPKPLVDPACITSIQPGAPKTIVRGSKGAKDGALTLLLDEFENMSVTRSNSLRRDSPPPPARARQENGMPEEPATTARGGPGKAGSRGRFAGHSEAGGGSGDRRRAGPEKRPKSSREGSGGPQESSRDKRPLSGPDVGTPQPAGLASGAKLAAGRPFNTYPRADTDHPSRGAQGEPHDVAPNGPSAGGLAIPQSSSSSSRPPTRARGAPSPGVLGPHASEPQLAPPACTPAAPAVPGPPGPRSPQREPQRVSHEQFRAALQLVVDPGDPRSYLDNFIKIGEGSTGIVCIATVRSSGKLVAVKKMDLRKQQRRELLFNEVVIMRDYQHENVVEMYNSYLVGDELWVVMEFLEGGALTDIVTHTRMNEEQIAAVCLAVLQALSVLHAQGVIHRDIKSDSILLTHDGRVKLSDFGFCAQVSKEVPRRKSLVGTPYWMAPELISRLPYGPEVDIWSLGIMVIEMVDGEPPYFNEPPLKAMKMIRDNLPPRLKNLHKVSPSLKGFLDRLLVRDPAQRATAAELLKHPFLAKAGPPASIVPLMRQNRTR
# Method in brief: as §1
# [3] = target: T3, ~100 representative kinases (Homo sapiens, UniProt Q96NX5); settings: Protein CAMK1G; average of three replicates
# T3 construct: Recombinant protein kinase domains with a concentration of 2 μM
# T3 sequence (Q96NX5 whole entry, the tested form may be a part): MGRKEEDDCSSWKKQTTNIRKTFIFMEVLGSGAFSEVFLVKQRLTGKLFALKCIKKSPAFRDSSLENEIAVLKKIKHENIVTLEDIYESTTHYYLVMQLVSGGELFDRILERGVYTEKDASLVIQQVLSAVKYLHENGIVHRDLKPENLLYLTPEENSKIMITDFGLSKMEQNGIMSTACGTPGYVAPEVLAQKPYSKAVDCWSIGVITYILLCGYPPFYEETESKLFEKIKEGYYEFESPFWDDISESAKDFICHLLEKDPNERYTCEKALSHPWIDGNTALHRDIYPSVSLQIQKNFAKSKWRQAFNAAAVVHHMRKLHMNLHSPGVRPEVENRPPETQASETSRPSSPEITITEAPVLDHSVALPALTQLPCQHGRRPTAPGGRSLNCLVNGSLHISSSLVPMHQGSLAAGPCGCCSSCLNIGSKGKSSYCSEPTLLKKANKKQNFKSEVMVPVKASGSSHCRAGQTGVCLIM
# Method in brief: as §1
# [4] = target: T4, ~100 representative kinases (Homo sapiens, UniProt Q96RR4); settings: Protein CAMKK2; average of three replicates
# T4 construct: Recombinant protein kinase domains with a concentration of 2 μM
# T4 sequence (Q96RR4 whole entry, the tested form may be a part): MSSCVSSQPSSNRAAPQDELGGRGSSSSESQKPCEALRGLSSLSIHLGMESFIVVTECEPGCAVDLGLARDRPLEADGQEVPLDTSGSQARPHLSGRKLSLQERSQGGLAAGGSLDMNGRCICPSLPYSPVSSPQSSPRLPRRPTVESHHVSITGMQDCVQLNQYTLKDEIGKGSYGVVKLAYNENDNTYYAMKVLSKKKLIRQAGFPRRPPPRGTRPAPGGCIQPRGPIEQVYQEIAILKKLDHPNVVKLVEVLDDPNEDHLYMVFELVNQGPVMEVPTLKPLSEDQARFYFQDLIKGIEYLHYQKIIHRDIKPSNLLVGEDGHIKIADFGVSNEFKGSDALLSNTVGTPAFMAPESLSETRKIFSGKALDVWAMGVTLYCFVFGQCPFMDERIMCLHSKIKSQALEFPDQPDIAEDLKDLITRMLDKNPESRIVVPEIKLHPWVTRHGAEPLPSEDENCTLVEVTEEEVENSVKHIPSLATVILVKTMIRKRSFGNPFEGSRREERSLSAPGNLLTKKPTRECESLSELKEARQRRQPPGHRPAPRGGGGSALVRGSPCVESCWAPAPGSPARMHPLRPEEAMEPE
# Method in brief: as §1
# [5] = target: T5, ~100 representative kinases (Homo sapiens, UniProt P22830); settings: protein FECH; average of three replicates
# T5 construct: Recombinant protein kinase domains with a concentration of 2 μM
# T5 sequence (P22830 55-423): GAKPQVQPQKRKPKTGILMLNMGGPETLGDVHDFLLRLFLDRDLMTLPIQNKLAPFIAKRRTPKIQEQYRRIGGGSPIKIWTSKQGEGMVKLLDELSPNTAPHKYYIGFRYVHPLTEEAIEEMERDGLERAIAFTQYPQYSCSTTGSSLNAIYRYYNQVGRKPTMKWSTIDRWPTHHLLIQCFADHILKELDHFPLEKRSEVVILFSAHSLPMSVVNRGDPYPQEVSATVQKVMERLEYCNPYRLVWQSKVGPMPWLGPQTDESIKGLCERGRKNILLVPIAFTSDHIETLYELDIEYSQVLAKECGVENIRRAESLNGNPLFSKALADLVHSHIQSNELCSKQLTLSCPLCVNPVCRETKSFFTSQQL
# Method in brief: as §1
# [6] = target: T6, ~100 representative kinases (Homo sapiens, UniProt Q9P289); settings: protein MST4; average of three replicates
# T6 construct: Recombinant protein kinase domains with a concentration of 2 μM
# T6 sequence (Q9P289 whole entry, the tested form may be a part): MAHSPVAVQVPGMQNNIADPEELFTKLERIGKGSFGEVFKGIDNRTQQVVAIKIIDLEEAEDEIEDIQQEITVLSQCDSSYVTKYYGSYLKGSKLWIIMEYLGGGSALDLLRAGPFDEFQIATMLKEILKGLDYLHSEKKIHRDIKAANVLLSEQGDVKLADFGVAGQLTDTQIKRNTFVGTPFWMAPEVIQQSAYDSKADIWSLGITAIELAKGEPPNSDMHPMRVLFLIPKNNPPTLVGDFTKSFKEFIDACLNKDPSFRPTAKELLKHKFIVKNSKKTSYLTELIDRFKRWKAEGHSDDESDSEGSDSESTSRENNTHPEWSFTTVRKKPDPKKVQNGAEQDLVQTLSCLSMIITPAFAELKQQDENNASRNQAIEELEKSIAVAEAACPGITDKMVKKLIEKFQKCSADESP
# Method in brief: as §1
# [7] = target: T7, ~100 representative kinases (Homo sapiens, UniProt Q8IU85); settings: Protein CAMK1D; average of three replicates
# T7 construct: Recombinant protein kinase domains with a concentration of 2 μM
# T7 sequence (Q8IU85 whole entry, the tested form may be a part): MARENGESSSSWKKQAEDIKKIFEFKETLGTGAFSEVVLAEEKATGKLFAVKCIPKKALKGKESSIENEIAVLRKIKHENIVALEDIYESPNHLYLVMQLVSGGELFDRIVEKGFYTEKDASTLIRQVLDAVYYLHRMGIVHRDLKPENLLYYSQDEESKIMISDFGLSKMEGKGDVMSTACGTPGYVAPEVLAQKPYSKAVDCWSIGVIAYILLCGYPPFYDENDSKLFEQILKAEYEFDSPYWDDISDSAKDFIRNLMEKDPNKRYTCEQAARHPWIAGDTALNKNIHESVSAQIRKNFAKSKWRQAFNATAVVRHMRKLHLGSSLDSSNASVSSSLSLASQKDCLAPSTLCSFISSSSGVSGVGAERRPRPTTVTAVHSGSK
# Method in brief: as §1
# [8] = target: T8, ~100 representative kinases (Homo sapiens, UniProt P34947); settings: protein GPRK5; average of three replicates
# T8 construct: Recombinant protein kinase domains with a concentration of 2 μM
# T8 sequence (P34947 whole entry, the tested form may be a part): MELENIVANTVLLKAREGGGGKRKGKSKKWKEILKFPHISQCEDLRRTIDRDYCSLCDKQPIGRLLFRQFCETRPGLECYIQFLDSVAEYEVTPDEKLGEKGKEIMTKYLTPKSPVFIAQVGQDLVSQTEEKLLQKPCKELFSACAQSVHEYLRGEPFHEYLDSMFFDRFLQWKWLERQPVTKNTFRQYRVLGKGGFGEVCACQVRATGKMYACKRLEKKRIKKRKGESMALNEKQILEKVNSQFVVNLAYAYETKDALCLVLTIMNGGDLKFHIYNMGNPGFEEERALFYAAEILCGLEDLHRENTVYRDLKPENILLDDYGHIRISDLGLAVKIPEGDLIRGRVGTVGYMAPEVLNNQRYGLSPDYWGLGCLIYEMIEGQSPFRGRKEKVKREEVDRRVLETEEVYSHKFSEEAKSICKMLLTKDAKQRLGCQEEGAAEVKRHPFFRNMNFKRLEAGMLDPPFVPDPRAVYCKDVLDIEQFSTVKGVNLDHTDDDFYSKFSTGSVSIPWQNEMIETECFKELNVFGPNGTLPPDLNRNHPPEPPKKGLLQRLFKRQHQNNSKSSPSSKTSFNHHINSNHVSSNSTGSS
# Method in brief: as §1
# [9] = target: T9, ~100 representative kinases (Homo sapiens, UniProt P48730); settings: Protein CSNK1D; average of three replicates
# T9 construct: Recombinant protein kinase domains with a concentration of 2 μM
# T9 sequence (P48730 whole entry, the tested form may be a part): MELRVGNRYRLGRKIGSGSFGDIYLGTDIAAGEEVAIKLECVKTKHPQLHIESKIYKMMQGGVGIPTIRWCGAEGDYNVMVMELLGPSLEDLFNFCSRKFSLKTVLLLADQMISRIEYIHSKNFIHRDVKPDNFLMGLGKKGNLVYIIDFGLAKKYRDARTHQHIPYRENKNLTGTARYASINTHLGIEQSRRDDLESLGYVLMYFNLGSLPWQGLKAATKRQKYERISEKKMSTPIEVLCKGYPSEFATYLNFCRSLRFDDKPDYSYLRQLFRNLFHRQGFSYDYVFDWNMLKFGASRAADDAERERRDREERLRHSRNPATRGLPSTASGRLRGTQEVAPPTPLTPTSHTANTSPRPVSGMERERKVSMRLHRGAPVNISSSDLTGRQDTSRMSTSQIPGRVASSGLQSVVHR
# Method in brief: as §1
# [10] = target: T10, ~100 representative kinases (Homo sapiens, UniProt Q16539); settings: protein MAPK14; average of three replicates
# T10 construct: Recombinant protein kinase domains with a concentration of 2 μM
# T10 sequence (Q16539 whole entry, the tested form may be a part): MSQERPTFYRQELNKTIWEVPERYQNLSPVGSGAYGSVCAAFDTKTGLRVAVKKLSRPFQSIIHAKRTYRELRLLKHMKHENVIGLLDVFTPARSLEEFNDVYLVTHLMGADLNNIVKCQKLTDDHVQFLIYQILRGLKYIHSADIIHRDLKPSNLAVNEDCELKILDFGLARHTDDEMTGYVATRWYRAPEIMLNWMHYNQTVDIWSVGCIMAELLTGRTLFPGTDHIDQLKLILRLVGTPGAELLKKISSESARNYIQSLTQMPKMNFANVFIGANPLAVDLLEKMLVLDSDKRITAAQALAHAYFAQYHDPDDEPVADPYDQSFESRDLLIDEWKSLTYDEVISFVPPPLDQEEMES
# Method in brief: as §1
# [11] = target: T11, ~100 representative kinases (Homo sapiens, UniProt P11362); settings: protein FGFR1; average of three replicates
# T11 construct: Recombinant protein kinase domains with a concentration of 2 μM
# T11 sequence (P11362 22-822): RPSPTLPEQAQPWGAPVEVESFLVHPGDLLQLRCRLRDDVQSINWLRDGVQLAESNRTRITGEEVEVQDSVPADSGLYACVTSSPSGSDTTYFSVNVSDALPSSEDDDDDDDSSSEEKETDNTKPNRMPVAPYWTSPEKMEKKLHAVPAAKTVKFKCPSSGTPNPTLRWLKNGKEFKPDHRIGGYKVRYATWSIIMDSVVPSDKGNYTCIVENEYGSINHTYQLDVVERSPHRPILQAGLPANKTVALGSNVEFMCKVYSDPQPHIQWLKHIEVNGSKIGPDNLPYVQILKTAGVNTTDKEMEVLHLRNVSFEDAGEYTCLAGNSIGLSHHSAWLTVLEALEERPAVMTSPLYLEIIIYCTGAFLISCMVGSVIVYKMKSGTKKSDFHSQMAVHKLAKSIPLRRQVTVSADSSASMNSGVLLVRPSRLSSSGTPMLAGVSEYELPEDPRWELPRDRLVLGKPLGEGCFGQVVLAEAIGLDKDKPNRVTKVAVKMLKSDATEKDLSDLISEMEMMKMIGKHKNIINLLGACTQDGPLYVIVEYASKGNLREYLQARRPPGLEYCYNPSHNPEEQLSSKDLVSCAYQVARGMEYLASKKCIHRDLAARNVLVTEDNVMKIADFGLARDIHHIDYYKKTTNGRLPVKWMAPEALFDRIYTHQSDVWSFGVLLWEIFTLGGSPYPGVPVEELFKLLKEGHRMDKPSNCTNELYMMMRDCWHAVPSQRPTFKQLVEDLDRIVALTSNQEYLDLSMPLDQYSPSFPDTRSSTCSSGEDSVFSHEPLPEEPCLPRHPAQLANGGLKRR
# Method in brief: as §1
Compound,dTm [1],dTm [2],dTm [3],dTm [4],dTm [5],dTm [6],dTm [7],dTm [8],dTm [9],dTm [10],dTm [11]
Cc1cc(NC(=O)C2(C(=O)Nc3ccc(F)cc3)CC2)cc(-c2c[nH]c3ncnc(N4CCOCC4)c23)c1 [Compound 6],4.24 K,0.99 K,3.07 K,4.32 K,-0.18 K,3.15 K,1.65 K,0.0071 K,1.10 K,1.61 K,0.32 K
O=C(Nc1cccc(-c2c[nH]c3ncnc(N4CCOCC4)c23)c1)C1(C(=O)Nc2cccc3c2CCC3)CC1 [Compound 11],3.33 K,0.55 K,2.69 K,5.02 K,-8.36 K,0.22 K,1.59 K,-0.20 K,1.21 K,1.60 K,0.52 K
O=C(Nc1ccccc1)C1(C(=O)Nc2cccc(-c3c[nH]c4ncnc(N5CCOCC5)c34)c2)CC1 [Compound 12],2.42 K,-0.15 K,1.89 K,5.09 K,0.29 K,3.77 K,-1.41 K,0.86 K,1.61 K,0.0252 K,1.41 K
O=C(Nc1ccc(Cl)cc1)C1(C(=O)Nc2cccc(-c3c[nH]c4ncnc(N5CCOCC5)c34)c2)CC1 [Compound 13],4.01 K,1.17 K,3.50 K,7.83 K,-6.06 K,5.13 K,0.67 K,1.38 K,2.99 K,1.55 K,1.36 K
Cc1ccc(NC(=O)C2(C(=O)Nc3cccc(-c4c[nH]c5ncnc(N6CCOCC6)c45)c3)CC2)cc1 [Compound 14],1.35 K,-0.55 K,1.22 K,4.94 K,0.67 K,3.59 K,-1.76 K,0.90 K,1.58 K,0.29 K,0.77 K
CCc1ccc(NC(=O)C2(C(=O)Nc3cccc(-c4c[nH]c5ncnc(N6CCOCC6)c45)c3)CC2)cc1 [Compound 15],1.27 K,-0.0471 K,1.75 K,5.52 K,-8.07 K,2.78 K,-1.11 K,1.27 K,1.30 K,0.36 K,0.64 K
COc1ccc(NC(=O)C2(C(=O)Nc3cccc(-c4c[nH]c5ncnc(N6CCOCC6)c45)c3)CC2)cc1 [Compound 16],0.46 K,-0.80 K,-0.76 K,1.74 K,0.0636 K,1.30 K,-1.41 K,0.44 K,0.92 K,-0.16 K,0.70 K
O=C(Nc1cccc(-c2c[nH]c3ncnc(N4CCOCC4)c23)c1)C1(C(=O)Nc2ccc(F)c(F)c2)CC1 [Compound 17],3.32 K,0.06 K,2.10 K,6.90 K,1.70 K,6.01 K,-0.44 K,0.75 K,2.63 K,0.53 K,1.11 K
O=C(Nc1cccc(-c2c[nH]c3ncnc(N4CCOCC4)c23)c1)C1(C(=O)Nc2ccc(F)c(Cl)c2)CC1 [Compound 18],3.67 K,0.49 K,3.39 K,9.58 K,-2.64 K,6.98 K,1.04 K,0.43 K,3.14 K,1.31 K,2.20 K
O=C(Nc1cccc(-c2c[nH]c3ncnc(N4CCOCC4)c23)c1)C1(C(=O)Nc2ccc(F)c(Br)c2)CC1 [Compound 19],5.22 K,1.11 K,5.35 K,9.18 K,-5.01 K,6.31 K,3.06 K,0.28 K,0.43 K,3.30 K,1.26 K
Cc1cc(NC(=O)C2(C(=O)Nc3cccc(-c4c[nH]c5ncnc(N6CCOCC6)c45)c3)CC2)ccc1F [Compound 20],4.77 K,-0.11 K,2.80 K,10.45 K,2.57 K,7.93 K,0.0569 K,1.05 K,3.49 K,1.97 K,2.46 K
COc1cc(NC(=O)C2(C(=O)Nc3cccc(-c4c[nH]c5ncnc(N6CCOCC6)c45)c3)CC2)ccc1F [Compound 21],2.37 K,-0.79 K,1.23 K,8.27 K,-0.18 K,6.10 K,-0.74 K,0.34 K,3.13 K,0.76 K,1.39 K
CC(C)(C)c1cccc(NC(=O)C2(C(=O)Nc3cccc(-c4c[nH]c5ncnc(N6CCOCC6)c45)c3)CC2)c1 [Compound 22],2.56 K,0.76 K,4.22 K,9.68 K,-3.46 K,4.41 K,3.02 K,-0.26 K,-2.04 K,0.60 K,1.53 K
